We go through 15 compounds from patent publication US10106529B2, “Compounds that modulate intracellular calcium” (CalciMedica, Inc., priority 2011, dated 2018).

A value given as a limit tells only on which side of the number the result lay.

One assay addresses T1, Orai1/STIM1 (Homo sapiens, UniProt Q96D31).
T1 construct: c-myc (C); expressed in transfected cells; host or cells: HEK-293 cells stably expressing recombinant human STIM1 and Orai1
As to the kind of experiment: Fluorescence-based assay of store-operated calcium entry in Orai1/STIM1 stable cells. Type of assay: cell-based. Further details: key to Orai1/STIM1 (IC50, μmol): A, IC50 < 0.6 μM; B, IC50 = 0.6-1.2 μM; C, IC50 > 1.2 μM; — no fit. Particulars: HEK-293 cells stably expressing human STIM1 and Orai1, inhibition of Peak-Basal fluorescence signal after calcium addition; for IC50: read-out: Orai1/STIM1 (IC50, μmol). The source says:
(§1) Fluorescence-based assays are used for screening the compounds described herein, such as compounds of Formulas (I), (IA), (II), (IIA), (III), (IIIA), (IV), (IVA), (V), (VA), (VI), (VIA), (VII), (VIIA), (VIII), (VIIIA), (IX), (IXA), (X), (XI), (XIA), (XII), or (XIIA) which modulate intracellular calcium.
A. Fluorescence-Based Assay of Store-Operated Calcium Entry in Orai1/STIM1 Stable Cells.
Cells stably expressing recombinant human STIM1 and Orai1 are generated by transfecting a human Orai1 expression plasmid (pcDNA3.1-Orai1-cmyc) into HEK-293 cells stably overexpressing human STIM1 (Roos et al. 2005 JCB 169(3): 435-445). Colonies of cells stably expressing both STIM1 and Orai1 proteins are selected and then subcloned by limiting dilution. Cells were cultured at 37° C./6% CO2 in complete medium with 10% FBS and appropriate selection markers.
The day prior to performing the assay Orai1/STIM1 stable cells are plated in 50 μL of complete medium at 90-95% confluence in a 384 well plate. Cells are grown at 37° C./6% CO2 overnight. On the day of the assay, 1.5 μM fluo-4-AM (Invitrogen) in complete medium is added to the cells, which are then incubated for 1 hour at RT. Cells are washed once in Ca^2+-free HBSS (Hank's buffered saline solution) and 35 μl of Ca^2+-free HBSS is added to each well. Test compounds are added to wells in a 10 μL Ca^2+-free HBSS solution, prepared at 4.5× the desired final concentration, and incubated for 30 minutes at RT. The initial baseline fluorescence signal is then measured with a FLIPR^384 (Molecular Devices) plate reader. Calcium entry is initiated by adding 5 μl of 10×CaCl2 (10 mM) in HBSS, and changes in cellular fluorescence are measured with the FLIPR^384 plate reader. In each well, the magnitude of the fluorescence signal as a result of calcium entry into the cell is determined by calculating the difference between the peak fluorescence signal measured after calcium addition and the initial baseline fluorescence signal (designated Peak-Basal). IC50 values are typically calculated as the concentration that inhibited 50% of the Peak-Basal signal.

For the next assay, the system named is RBL-2H3 cells. As to the kind of experiment: Fluorescence-based assay of store-operated calcium entry in RBL-2H3 cells. Particulars: thapsigargin, inhibition of Upslope of fluorescence after calcium addition; for IC50: Rattus norvegicus, read-out: RBL-2H3 (IC50, μmol). It is filed as cell-based, rat. Further details: key to RBL-2H3 (IC50, μmol): A, IC50 < 0.6 μM; B, IC50 = 0.6-1.2 μM; C, IC50 > 1.2 μM; — no fit. Here is the method: as §1
B. Fluorescence-Based Assay of Store-Operated Calcium Entry in RBL-2H3 Cells.
RBL-2H3 cells are obtained from ATCC and maintained in complete medium with 10% FBS at 37° C./6% CO2.
The day prior to performing the assay, RBL-2H3 cells are plated in 50 μL of complete medium in a 384 well plate. Cells are grown at 37° C./6% CO2 overnight and grow to 50-60% confluence by the next day. On the assay day, 1.5 µM Fluo-4-AM dye (Invitrogen) in complete medium is added and incubated for 1 hour at RT. Cells are washed twice in Ca^2+-free HBSS buffer and 35 μL Ca^2+-free HBSS buffer is added to each well. 10 μL of a test compound prepared in a Ca^2+-free HBSS solution at 4.5× of the desired concentration is added to a well and incubated for 5 minutes at RT. 10 μL of thapsigargin prepared in a Ca^2+-free HBSS solution at 5.5× of the desired concentration (5.5 uM) is added to each well and incubated for an additional 25 minutes. The initial baseline fluorescence signal is measured with a FLIPR^384 (Molecular Devices) plate reader. 5 μL of 12× calcium in HBSS (12 mM) is added and changes in cellular fluorescence are measured with the FLIPR^384 plate reader. In each well, the change in the fluorescent signal as a function of time due to calcium entry into the cell is determined by calculating the difference between the fluorescent signal measured 7 seconds after calcium addition and the initial baseline fluorescence signal at time zero (t=0). This parameter is designated Upslope. The IC50 value is calculated as the concentration at which 50% of the Upslope is inhibited.

T1 sequence (Q96D31 whole entry): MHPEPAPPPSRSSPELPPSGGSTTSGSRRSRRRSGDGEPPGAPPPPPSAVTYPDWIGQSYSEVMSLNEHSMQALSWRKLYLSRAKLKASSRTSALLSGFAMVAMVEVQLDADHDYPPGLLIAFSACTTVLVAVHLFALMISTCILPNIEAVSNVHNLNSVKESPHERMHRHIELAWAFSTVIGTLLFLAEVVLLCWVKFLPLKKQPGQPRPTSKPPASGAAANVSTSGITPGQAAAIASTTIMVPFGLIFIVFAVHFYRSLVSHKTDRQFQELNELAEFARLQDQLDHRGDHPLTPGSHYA

For `Cc1cc2c(cc1-c1cnc(NCc3c(F)cc(F)cc3F)cn1)OC(F)(F)O2` [Compound 23], the IC50 on Orai1/STIM1 is 600 to 1200 nM; in the assay with RBL-2H3 cells it was below 600 nM.
Regarding `Cc1cc2c(cc1-c1ccc(NCc3c(F)cccc3F)nc1)OCCO2` [Compound 37, N-(2,6-difluorobenzyl)-5-(7-methyl-2,3-dihydrobenzo[b][1,4]dioxin-6-yl)pyridin-2-amine], the IC50 is 600 to 1200 nM at Orai1/STIM1 and below 600 nM in the assay with RBL-2H3 cells.
`Fc1cccc(F)c1CNc1ccc(-c2cc3c(cc2Cl)OCCO3)cn1` [Compound 42, 5-(7-chloro-2,3-dihydrobenzo[b][1,4]dioxin-6-yl)-N-(2,6-difluorobenzyl)pyridin-2-amine]: the IC50 was above 1200 nM at Orai1/STIM1 and below 600 nM in the assay on RBL-2H3 cells.
The matching figures for `Cc1cc(F)ccc1CNc1ccc(-c2nc3c(cc2Cl)OCCO3)cn1` [Compound 46]: 600 to 1200 nM and below 600 nM.
Consider `Cn1nc(C(F)(F)F)cc1-c1cnc(OCc2c(F)cccc2Cl)nc1` [Compound 69], for which the “Orai1/STIM1 (IC50, μmol)” value at Orai1/STIM1 was “—”. Also, the “RBL-2H3 (IC50, μmol)” value in the assay with RBL-2H3 cells is given as “—”.
`Cc1cc2c(cc1-c1cnc(OCc3c(F)cccc3Cl)nc1)OC(F)(F)O2` [Compound 70]: the IC50 at Orai1/STIM1 is above 1200 nM; with RBL-2H3 cells, below 600 nM.
`Cn1nc(C(F)(F)F)cc1-c1ccc(NC(=O)c2ccccc2F)nc1` [Compound 72, (2-fluorophenyl)-N-{5-[1-methyl-3-(trifluoromethyl)pyrazol-5-yl](2-pyridyl)}carboxamide]: the IC50 at Orai1/STIM1 and in the assay with RBL-2H3 cells was below 600 nM each time.
For `Cn1nc(C(F)(F)F)cc1-c1ccc(NC(=O)c2c(F)cccc2F)nc1` [Compound 74, (2,6-difluorophenyl)-N-{5-[1-methyl-3-(trifluoromethyl)pyrazol-5-yl](2-pyridyl)}carboxamide], the IC50 is 600 to 1200 nM on Orai1/STIM1 and below 600 nM in the assay with RBL-2H3 cells.
`Cn1nc(C(F)(F)F)cc1-c1cnc(NCc2c(F)cccc2F)cc1F` [Compound 76, N-(2,6-difluorobenzyl)-4-fluoro-5-(1-methyl-3-(trifluoromethyl)-1H-pyrazol-5-yl)pyridin-2-amine]: the IC50 was above 1200 nM at Orai1/STIM1 and 600 to 1200 nM in the assay on RBL-2H3 cells.
`Cn1nc(C(F)(F)F)cc1-c1ccc(NCc2c(F)ccc(F)c2F)nc1` [Compound 78, 5-(1-methyl-3-(trifluoromethyl)-1H-pyrazol-5-yl)-N-(2,3,6-trifluorobenzyl)pyridin-2-amine]: the IC50 on Orai1/STIM1 and in the assay on RBL-2H3 cells was below 600 nM in each case.
As to `Cn1nc(C(F)(F)F)cc1-c1ccc(NCc2ccc(F)cc2F)nc1` [Compound 80, 5-(1-methyl-3-(trifluoromethyl)-1H-pyrazol-5-yl)-N-(2,4-difluorobenzyl)pyridin-2-amine], the IC50 on Orai1/STIM1 and with RBL-2H3 cells was below 600 nM each time.
`Cn1nc(C(F)(F)F)cc1-c1ccc(NCc2c(F)cc(F)cc2F)nc1` [Compound 82, 5-(1-methyl-3-(trifluoromethyl)-1H-pyrazol-5-yl)-N-(2,4,6-trifluorobenzyl)pyridin-2-amine]: the IC50 on Orai1/STIM1 and in the assay with RBL-2H3 cells was below 600 nM in each case.
As for `Cn1nc(C(F)(F)F)cc1-c1ccc(NCc2c(F)cncc2F)nc1` [Compound 84, N-((3,5-difluoropyridin-4-yl)methyl)-5-(1-methyl-3-(trifluoromethyl)-1H-pyrazol-5-yl)pyridin-2-amine], the IC50 on Orai1/STIM1 and in the assay with RBL-2H3 cells was below 600 nM throughout.
Regarding `Cc1cccc(F)c1CNc1ccc(-c2cc(C(F)(F)F)nn2C)cn1` [Compound 86, N-(2-fluoro-6-methylbenzyl)-5-(1-methyl-3-(trifluoromethyl)-1H-pyrazol-5-yl)pyridin-2-amine], the IC50 at Orai1/STIM1 and in the assay on RBL-2H3 cells was below 600 nM each time.
Regarding `Cn1nc(C(F)(F)F)cc1-c1cnc(NCc2ccccc2F)nc1` [Compound 96, N-(2-fluorobenzyl)-5-(1-methyl-3-(trifluoromethyl)-1H-pyrazol-5-yl)pyrimidin-2-amine], the IC50 on Orai1/STIM1 and in the assay with RBL-2H3 cells was below 600 nM each time.
